Test results from publication PMC11651181, “Discovery of 6α-Thiazolylcarboxamidonaltrexamine Derivative (NTZ) as a Potent and Central Nervous System Penetrant Opioid Receptor Modulator with Drug-like Properties for Potential Treatment of Opioid Use Disorder” (ACS Pharmacology & Translational Science, 2024).
“Also recorded” adds a separate entry of the source. Where a name gives a salt, the structure may show the parent alone. Read-outs that look alike come from different tables or passages of the source.

Assays:
DOR = biological target: T1, DOR (Homo sapiens, UniProt P41143); experiment: DOR [35S]GTPγS functional assay; type: biochemical
T1 construct: expressed in transfected cells; host or cells: CHO (DOR-CHO), membrane preparation
Description: The [^35S]GTPγS functional assay was used to assess the efficacy of compounds at the MOR, KOR, and DOR. In this assay, 10 μg of MOR-CHO/KOR-CHO/DOR-CHO membrane protein was incubated in 500 μL of TME with 100 mM NaCl, 20 μM GDP, 0.1 nM [^35S]GTPγS, and varying concentrations of the compound for 1.5 h in a 30 °C water bath. Protein concentration was adjusted using the Bradford protein assay. […] After incubation, bound radioactivity was separated by filtration through GF/B glass fiber filters and measured by liquid scintillation counting. All assays were performed in duplicate and repeated at least three times. Net stimulated [35S]GTPγS binding was calculated as agonist-stimulated minus basal binding.

MOR = biological target: T2, MOR (Mus musculus, UniProt P42866); experiment: MOR calcium flux assay in Gαqi5-transfected mMOR-CHO cells; type: cell-based
T2 construct: expressed in transfected cells; host or cells: CHO (MOR-CHO), membrane preparation
Description: Ligands were initially tested at various concentrations (0.3 nM to 3 μM) for potential agonist activity in MOR-CHO cells. These cells were transfected with Gqi5 pcDNA1 using Lipofectamine 2000 (Invitrogen) following the manufacturer’s protocol. […] Peak values were obtained using SoftMaxPro software (Molecular Devices), and IC50 values were calculated by generating nonlinear regression curves using GraphPad Prism. Each dose was tested in triplicates, and the experiment was repeated at least four times to calculate standard errors.

typical tester strains = experiment: Bacterial reverse mutation assay; conditions: up to 100 μM
Description: (§1) The ADMET assessment including the hERG inhibitory activity, plasma protein binding, in vitro metabolic stability profile, CYP inhibitory effect and mutagenic evaluation were conducted by Eurofins Panlabs, Inc.[21],[61],[69]−[71]

CYP2A6 = biological target: T3, CYP2A6 (Homo sapiens, UniProt P11509); experiment: Cytochrome P450 inhibition assay, CYP2A6; type: in vitro ADME
T3 construct: Eurofins Panlabs, Inc. (contract laboratory)
T3 sequence (P11509 1-494): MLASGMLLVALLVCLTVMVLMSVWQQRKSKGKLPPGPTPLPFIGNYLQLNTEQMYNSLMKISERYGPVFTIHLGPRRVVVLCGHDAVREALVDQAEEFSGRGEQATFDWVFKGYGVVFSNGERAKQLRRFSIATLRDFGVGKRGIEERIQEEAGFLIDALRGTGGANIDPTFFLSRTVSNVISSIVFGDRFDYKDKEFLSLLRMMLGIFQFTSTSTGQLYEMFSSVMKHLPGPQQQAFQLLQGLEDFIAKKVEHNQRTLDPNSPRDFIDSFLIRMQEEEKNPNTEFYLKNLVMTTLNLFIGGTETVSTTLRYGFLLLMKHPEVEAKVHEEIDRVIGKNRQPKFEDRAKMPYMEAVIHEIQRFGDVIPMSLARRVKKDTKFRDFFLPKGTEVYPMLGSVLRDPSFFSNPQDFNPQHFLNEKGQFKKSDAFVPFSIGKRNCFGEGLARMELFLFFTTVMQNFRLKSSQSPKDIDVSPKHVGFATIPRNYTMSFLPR
Description: as §1

hERG potassium channel = hERG potassium channel (Homo sapiens, UniProt Q12809); experiment: hERG inhibitory activity assay (automated patch-clamp, CHO-K1 cells)
Description: On the day of the assay, a dish of cells was removed from the incubator, washed twice with extracellular solution at room temperature, and applied to automated patch-clamp sites. After achieving a whole-cell configuration, the membrane potential was held at −80 mV. A 50 ms pulse to −40 mV was applied to measure leak current, which was subtracted from the tail current in real time. […] This sequence was repeated every 5 s to track the current amplitude. The assay was performed at room temperature, with extracellular solution applied first to stabilize the cell for 5 min. […] Peak tail currents were recorded and plotted against sweep number. The control current amplitude was calculated by averaging five peak tail current measurements at steady state before compound application. The remaining current amplitude after compound inhibition was determined by averaging four to five peak tail current measurements at steady state after compound application.
Percent inhibition was calculated according to the following equation:

CYP2C9 = biological target: T4, CYP2C9 (Homo sapiens, UniProt P11712); experiment: Cytochrome P450 inhibition assay, CYP2C9; type: in vitro ADME
T4 construct: Eurofins Panlabs, Inc. (contract laboratory)
Description: as §1

[1] = In vivo BBB-penetration studies (LC-MS/MS of brain and plasma); set-up: species or system mouse; conditions: 10 mg/kg s.c.; for Brain concentration / concentration at 5 min / concentration at 10 min / concentration at 30 min: n = 3, mean ± SD; for concentration at 5 min / concentration at 10 min / concentration at 30 min: subcutaneous
Description: Swiss Webster mice (three mice each time point) were administered compound 6 (10 mg/kg, s.c.) or vehicle. At 5-, 10-, and 30 min time points post administration, the mice were euthanized by decapitation, and blood and brain samples were collected. Blood samples were centrifuged at 15,000 g for 10 min at 4 °C to isolate plasma. Brains were washed twice with saline before harvesting and stored in saline until homogenization. Both brain and plasma samples were kept at −80 °C until further analysis.
Compound 6 was identified and quantified in mouse plasma and brain using a modified version of a previously established method, with naloxone-d5 as the internal standard.[20] In brief, compound 6 was extracted from both blood and brain using naloxone-d5 as the internal standard (ISTD) by a liquid/liquid extraction. Before extraction, brain tissue samples were homogenized at a ratio of one-part tissue to three-parts water. Seven-point calibration curves (10–1000 ng/mL or ng/g) were prepared for in plasma, and included drug free control, negative control (lacking internal standard, ISTD) for plasma and brain, and quality control samples in plasma and brain (30, 300, and 750 ng/mL or ng/g). […], used as the internal standard, was added at a concentration of 10 ng/mL to either 100 μL of blood or 400 μL for brain homogenate to each calibrator, control, or sample, excluding the negative control. To these samples 0.5 mL of saturated carbonate/bicarbonate buffer (1:1, pH 9.5) and 2.0 mL of chloroform: isopropanol (8:2) were added. The mixtures were vortexed, centrifuged and the top aqueous layer was removed. The organic layer was transferred to a clean test tube and evaporated to dryness under nitrogen. The residues were reconstituted in 80:20 methanol: water and transferred to autosampler vials for analysis. Chromatographic separation of compound 6 and naltrexone-d5 was performed using a Shimadzu Nexera X2 liquid chromatography system with a Zorbax XDB-C18 4.6 × 75 mm, 3.5-μm column (Agilent Technologies, Santa Clara, CA). The mobile phase consisted of water with 1 g/L ammonium formate and 0.1% formic acid (Phase A) and methanol (Phase B). The flow rate was maintained at 1 mL/min. The gradient started at 20% B, increased to 80% within 1 min, and was held for 1.5 min before returning to the initial conditions. Detection was carried out using a Sciex 6500 QTRAP system with an IonDrive Turbo V source for TurbolonSpray (Sciex, Ontario, Canada). The curtain gas flow rate set to 30 mL/min while the ion source gases 1 and 2 were set to 60 mL/min. The source temperature was maintained at 650 °C and the ionspray voltage was set at 5500 V. The declustering potential was […]. The following quantification and qualifying transition ions were monitored in positive multiple reaction monitoring (MRM) mode with collisions energies in parentheses: compound 6 455> 437 (26), 455 > 268 & (41); naloxone-d5 333> 212 (45), &333 > 315 (25). Retention times of compound 6 and naloxone-d5 were 1.81 and 1.69 min, respectively. The total run time was 4 min. Compound 6 concentration was determined by linear regression plot based on peak area ratios of the calibrators.

[2] = human, CHO-K1 cells stably expressing hERG

hERG potassium channel, sequence (Q12809 whole entry): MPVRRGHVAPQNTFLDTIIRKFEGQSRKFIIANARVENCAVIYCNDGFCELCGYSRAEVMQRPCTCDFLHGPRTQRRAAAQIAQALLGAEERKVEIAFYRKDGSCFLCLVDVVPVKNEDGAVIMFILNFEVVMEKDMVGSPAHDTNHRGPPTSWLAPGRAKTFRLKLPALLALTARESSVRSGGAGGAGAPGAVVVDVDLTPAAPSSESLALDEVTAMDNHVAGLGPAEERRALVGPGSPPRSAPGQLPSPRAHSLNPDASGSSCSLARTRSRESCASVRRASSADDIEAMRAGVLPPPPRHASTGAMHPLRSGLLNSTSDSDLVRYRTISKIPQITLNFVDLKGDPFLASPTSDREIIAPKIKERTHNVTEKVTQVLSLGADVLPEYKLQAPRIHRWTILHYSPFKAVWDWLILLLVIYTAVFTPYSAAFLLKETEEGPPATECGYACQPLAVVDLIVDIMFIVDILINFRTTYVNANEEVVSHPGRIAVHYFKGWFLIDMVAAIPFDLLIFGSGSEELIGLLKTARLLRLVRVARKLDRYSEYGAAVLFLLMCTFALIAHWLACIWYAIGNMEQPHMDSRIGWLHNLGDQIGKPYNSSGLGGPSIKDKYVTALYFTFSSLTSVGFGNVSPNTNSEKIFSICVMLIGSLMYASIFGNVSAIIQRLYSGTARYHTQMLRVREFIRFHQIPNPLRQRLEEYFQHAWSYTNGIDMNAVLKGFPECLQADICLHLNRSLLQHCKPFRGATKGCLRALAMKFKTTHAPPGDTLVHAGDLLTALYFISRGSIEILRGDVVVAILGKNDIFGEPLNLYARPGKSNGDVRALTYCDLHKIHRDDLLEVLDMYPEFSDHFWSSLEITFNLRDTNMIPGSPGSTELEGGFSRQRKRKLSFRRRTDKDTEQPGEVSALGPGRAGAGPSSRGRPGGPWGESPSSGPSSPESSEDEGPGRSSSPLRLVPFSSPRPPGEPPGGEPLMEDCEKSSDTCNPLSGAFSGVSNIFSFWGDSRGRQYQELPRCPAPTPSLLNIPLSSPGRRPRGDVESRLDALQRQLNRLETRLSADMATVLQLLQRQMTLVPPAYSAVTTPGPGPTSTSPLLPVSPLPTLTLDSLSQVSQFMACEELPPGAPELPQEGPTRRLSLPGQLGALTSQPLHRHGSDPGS
T2 sequence (P42866 whole entry): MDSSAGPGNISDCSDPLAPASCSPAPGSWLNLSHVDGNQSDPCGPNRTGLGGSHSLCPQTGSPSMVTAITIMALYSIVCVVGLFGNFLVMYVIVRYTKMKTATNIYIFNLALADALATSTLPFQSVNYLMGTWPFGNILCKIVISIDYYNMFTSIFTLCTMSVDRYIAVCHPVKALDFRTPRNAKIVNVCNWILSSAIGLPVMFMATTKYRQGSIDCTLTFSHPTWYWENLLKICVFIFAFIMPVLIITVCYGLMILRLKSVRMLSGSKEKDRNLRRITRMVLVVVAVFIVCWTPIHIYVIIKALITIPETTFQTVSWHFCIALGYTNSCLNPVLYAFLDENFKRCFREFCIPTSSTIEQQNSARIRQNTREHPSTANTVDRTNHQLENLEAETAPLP
T1 sequence (P41143 whole entry): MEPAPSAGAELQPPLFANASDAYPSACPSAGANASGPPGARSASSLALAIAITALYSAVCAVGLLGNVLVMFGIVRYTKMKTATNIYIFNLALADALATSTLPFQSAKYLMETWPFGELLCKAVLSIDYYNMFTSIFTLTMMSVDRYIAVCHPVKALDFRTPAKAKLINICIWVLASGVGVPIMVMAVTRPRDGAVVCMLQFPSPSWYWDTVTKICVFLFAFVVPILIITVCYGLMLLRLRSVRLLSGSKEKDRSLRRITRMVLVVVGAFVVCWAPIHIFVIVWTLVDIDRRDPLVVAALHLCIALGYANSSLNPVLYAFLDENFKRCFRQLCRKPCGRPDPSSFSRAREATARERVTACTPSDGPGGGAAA
T4 sequence (P11712 whole entry): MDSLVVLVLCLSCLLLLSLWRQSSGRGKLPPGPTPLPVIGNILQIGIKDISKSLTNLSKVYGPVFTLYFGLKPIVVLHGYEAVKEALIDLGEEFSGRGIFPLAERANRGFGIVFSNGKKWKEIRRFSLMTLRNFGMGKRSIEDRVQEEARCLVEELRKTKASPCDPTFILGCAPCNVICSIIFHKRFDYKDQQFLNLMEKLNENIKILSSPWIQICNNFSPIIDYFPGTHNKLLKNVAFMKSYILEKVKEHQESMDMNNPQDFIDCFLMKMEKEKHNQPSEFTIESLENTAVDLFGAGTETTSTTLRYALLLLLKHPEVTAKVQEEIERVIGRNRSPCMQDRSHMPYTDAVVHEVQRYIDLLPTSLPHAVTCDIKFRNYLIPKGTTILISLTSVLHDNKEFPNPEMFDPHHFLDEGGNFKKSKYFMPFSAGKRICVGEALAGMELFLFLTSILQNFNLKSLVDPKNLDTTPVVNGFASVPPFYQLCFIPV

O=C(N[C@H]1CC[C@@]2(O)[C@H]3Cc4ccc(O)c5c4[C@@]2(CCN3CC2CC2)[C@H]1O5)c1nccs1 [Compound 6, 17-Cyclopropylmethyl-3,14β-dihydroxy-4,5α-epoxy-6α-(2′-thiazolylcarboxamido)-morphinan hydrochloride]
EC50 (DOR): 23.6 ± 4.29 nM | Emax (DOR; relative to 3 μM SNC80, mean ± SEM, read-out: DOR [35S]GTPγS binding % Emax of SNC80): 46.5 ± 2.17% | IC50 (MOR): 5.64 ± 0.24 nM | Agonistic activity in increasing intracellular calcium, in words (MOR; compared to full MOR agonist DAMGO): no apparent agonism; also recorded: none of them showed any significant agonistic activity | Mutagenic potential, in words (typical tester strains): no mutagenic potential | inhibition at 10 µM (CYP2A6; 1.0E-05 M): 7.8% | inhibition at 100 nM (CYP2A6; 1.0E-07 M): 6.3% | IC50 (hERG potassium channel): 7400 nM | inhibition at 10 nM (hERG potassium channel; [2]): 2.6% | inhibition at 100 nM (hERG potassium channel; [2]): 6% | inhibition at 1 µM (hERG potassium channel; [2]): 18.5% | inhibition at 10 µM (hERG potassium channel; [2]): 55.5% | inhibition at 0.0001 M (hERG potassium channel; [2]): 86.8% | inhibition at 10 µM (CYP2C9; 1.0E-05 M): 16.3% | inhibition at 100 nM (CYP2C9; 1.0E-07 M): 0.6% | Decrease in the plasma levels over 30 min [1]: 33% | Brain concentration ([1]; 5 min): 0.187 ± 0.07 µg/g | Brain concentration ([1]; 10 min): 0.235 ± 0.06 µg/g | Brain concentration ([1]; 30 min): 0.264 ± 0.05 µg/g | Kp at 5 min ([1]; Swiss Webster, mouse, brain and plasma, sc, 5 min, read-out: Brain-to-Plasma ratio): 0.102 | Kp at 10 min ([1]; Swiss Webster, mouse, brain and plasma, sc, 10 min, read-out: Brain-to-Plasma ratio): 0.173 | Kp at 0.5 h ([1]; Swiss Webster, mouse, brain and plasma, sc, 30 min, read-out: Brain-to-Plasma ratio): 0.217 | concentration at 5 min ([1]; Swiss Webster, mouse, brain, 5 min, read-out: Brain concentration): 187 ng/g | concentration at 10 min ([1]; Swiss Webster, mouse, brain, 10 min, read-out: Brain concentration): 235 ng/g | concentration at 30 min ([1]; Swiss Webster, mouse, brain, 30 min, read-out: Brain concentration): 264 ng/g | concentration at 5 min ([1]; Swiss Webster, mouse, plasma, 5 min, read-out: Plasma concentration): 1820 ± 280 ng/mL | concentration at 10 min ([1]; Swiss Webster, mouse, plasma, 10 min, read-out: Plasma concentration): 1360 ± 210 ng/mL | concentration at 30 min ([1]; Swiss Webster, mouse, plasma, 30 min, read-out: Plasma concentration): 1220 ± 330 ng/mL
